Assay results reported in patent US20120028359A1, “PRODUCTION PROCESS OF GENDER-SPECIFIC SERUM AND BIOMARKER USING THE SERUM” (priority 2009, published 2012).

Columns and labels:
myotube formed cells = assay: Lipid accumulation in myotube formed cells treated with hormone; type: cell-based; conditions: DMEM (phenol-red (−))/10% FBS, hormone for about 2 weeks; FIG. 5
Source text: Then, lipid accumulation levels of the cells were confirmed.

FAT/CD36 [1] = assay: Immunocytochemistry, FAT/CD36 protein in adipogenic medium; type: cell-based, bovine; conditions: adipogenic medium with C-MS, hormone-treated; FIG. 20
Method: Isolated MSCs were cultured in a covered glass-bottom dish and allowed to differentiate into myotubes or to transdifferentiate into ALCs under different serum conditions. Then, the culture mediun was removed and cells were rinsed with PBS. PBS rinsing was also performed between all subsequent steps. Cells were fixed with 4% formaldehyde, permeabilized by 0.2% Triton X-100 and 3-4 drops of Image-iT™ FX signal enhancer (Invitrogen) was applied. Primary antibody (mouse monoclonal IgG1 Myogenin; sc-12732, rabbit polyclonal IgG CD36 sc-9154; Santa Cruz Biotechnology, Santa Cruz Calif., USA) was added and incubated at 4° C. in a humid environment overnight, and then incubated with secondary antibody (Alexa Fluor 488 goat anti-mouse SFX kit and Alexa Fluor 488 goat anti-rabbit SFX kit; Molecular Probes, Eugene, Oreg., USA) at room temperature for 1 hour. Each cell nucleus was counterstained by […] (DAPI; Sigma-Aldrich, St. Louis Mo., USA). Immunostained cells were observed using a fluorescence microscope (Nikon).
MSCs were transdifferentiated into ALCs by switching the culture medium into adipogenic medium. To observe the effect of different sera on transdifferentiation, cells were cultured in adipogenic media supplemented with different sera for 7 days and stained with ORO. […]

isolated MSCs = assay: Lipid droplets (ORO) in MSCs in adipogenic medium with C-MS plus hormone; type: cell-based, bovine; conditions: hormone-treated vs untreated, FIGS. 17 and 18
Method: The cells were cultured in adiopogenic medium treated with E2, testosterone, or E2 and testosterone. The cells were stained with ORO to check the accumulation of lipid droplets.

bovine MSCs = assay: MSC proliferation, cells enumerated with hematocytometer; type: cell-based; conditions: MSC in C-MS or CDFBS, 10 nM hormone, vs respective control
Method: The cultured cells were harvested by trypsin-EDTA, and subcultured in wells of 6-well plates with DMEM supplemented with FBS after washing the collected cell precipitate. Cells were cultured for a day in the supplemented medium to allow for equal attachment in the culture dish. The next day the medium was removed and replaced with DMEM supplemented with 10% FBS, MS, FS and C-MS.
MSCs were cultured in DMEM supplemented with C-MS to observe the steroidal effect on the cultured muscle cells. E2, testosterone, or a combination of E2 and testosterone (all 10 nM) were added directly to each medium. Cells were enumerated under microscopic examination using a hematocytometer.
For MSC differentiation, cells were collected from a primary culture dish and subcultured. The cells in passage one were cultured in medium supplemented with FBS, MS, FS, or […] for three days, and cell numbers in each culture were enumerated.
MSC were subcultured in C-MS or CDFBS and treated with 10 nM of E2 or testosterone, or a combination of E2 and testosterone.

FAT/CD36 [2] = assay: Real-time RT-PCR, FAT/CD36 mRNA in adipogenic medium; type: cell-based, bovine; conditions: adipogenic medium with C-MS, hormone-treated; FIG. 19
Method: (§1) Trizor™ reagent (Invitrogen) was used to extract total RNA from cells, according to the manufacturer's protocol. RNA was […] in diethylpyrocarbonate-treated water at −80° C. Concentrations of the extracted RNA samples were measured using an ND-100 spectrophotometer (NanoDrop Technologies, Wilmington, Del., USA) and the purity was checked with an Agilent 2100 bioanalyzer (Agilent Technologies, Palo Alto, Calif., USA) prior to RT-PCR. RNA was reverse-transcribed into the first stranded cDNA using Superscript-II reverse transcriptase (Invitrogen). Total RNA (1 μg in 20 μl total volume) was primed with oligo (dT) 20 primers (Bioneer, Daejeon, Korea), and reverse transcription was carried out at 42° C. for 50 min and 72° C. for 15 min. Subsequently, 2 μl of the 10× diluted cDNA product and 10 pmoles of each gene-specific primer were used to perform PCR using a 7500 real-time PCR system (Applied Biosystems, Foster City, Calif., USA). Power SYBR® Green PCR Master Mix (Applied Biosystems) was used as the fluorescence source. Primers were designed with Primer 3 software (http://frodo.wi.mit.edu) using sequence information listed at the National Center for Biotechnology Information. […]

Myogenin = assay: Real-time RT-PCR, myogenin mRNA; type: cell-based, bovine; conditions: hormone treatment, 10 nM, C-MS medium; FIG. 13
Method: as §1

AR = assay: Real-time RT-PCR, AR mRNA; type: cell-based, bovine; conditions: hormone treatment, 10 nM, C-MS medium; FIG. 13
Method: as §1

C2C12 myoblast cell line = assay: C2C12 myoblast proliferation; type: cell-based; conditions: testosterone-treated C-MS and CDFBS
Source text: In addition, the effect of different serum and steroids on the C2Cl2 myoblast cell line was also observed. The data generated were in agreement with those of bovine MSCs.

**Q.** What does the source list for C[C@]12CC[C@@H]3c4ccc(O)cc4CC[C@H]3[C@@H]1CC[C@@H]2O [E2, 17β-estradiol]?
**A.** lipid accumulation level in myotube (myotube formed cells): highest in myotube of the cells treated with 17β-estradiol, and decreases in the following order of [17β-estradiol+testosterone], testosterone, and the control group that was not treated with hormone; FAT/CD36 protein expression (FAT/CD36 [1]): upregulated; lipid droplets, ORO staining (isolated MSCs): slight increase; increment of cell proliferation (bovine MSCs): highest in the testosterone-treated culture followed by the combination E2 and testosterone, and E2 only; FAT/CD36 mRNA expression (FAT/CD36 [2]): significant increase

**Q.** For C[C@]12CC[C@H]3[C@@H](CCC4=CC(=O)CC[C@@]43C)[C@@H]1CC[C@@H]2O [testosterone], which “lipid accumulation level in myotube” value (myotube formed cells) is on record?
**A.** highest in myotube of the cells treated with 17β-estradiol, and decreases in the following order of [17β-estradiol+testosterone], testosterone, and the control group that was not treated with hormone

**Q.** What about the myogenin expression (Myogenin) of the same molecule?
**A.** up-regulated myogenin and AR expression significantly

**Q.** And the AR expression (AR)?
**A.** up-regulated myogenin and AR expression significantly

**Q.** What about the “lipid droplets, ORO staining” value (isolated MSCs) of the same molecule?
**A.** slight increase

**Q.** And the C2C12 cell proliferation (C2C12 myoblast cell line)?
**A.** markedly increased

**Q.** What about the “increment of cell proliferation” value (bovine MSCs) of the same molecule?
**A.** highest in the testosterone-treated culture followed by the combination E2 and testosterone, and E2 only
